Measurements from patent publication US10336792B2, “Antimicrobial peptide dendrimers” (priority 2014, dated 2019).
≈ marks a conversion by molar mass, not a printed value. Positions of bridges follow the written chain, without caps; N, C: chain ends. Non-standard residues stand in square brackets, D forms with d. Residues, ends and D or L forms follow the SMILES beside them. Groups on a side chain read outwards from the residue. Chains are numbered I, II in the order given. dDap = NC[C@@H](N)C(=O)O

Experiments:
Assay type in all cases: cell-based
[1] = test system: Bacillus subtilis (strain BR151); settings: strain BR151
Method in brief: (§1)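 Broth microdilution MIC in LB; overnight cultures diluted to OD600 0.001 and mixed 1:1 with ⅔-serially diluted samples (stock 1 mg mL^−1 in H2O), 37° C for 18-24 h. MTT (0.1%) added; MIC read by eye as lowest concentration inhibiting visible growth (yellow).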

[2] = test system: Escherichia coli (strain DH5α); settings: DH5α
Method in brief: as §1

[3] = test system: Pseudomonas aeruginosa (strain PA01); test: microbe, parasite or virus in culture; settings: strain
Method in brief: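 Broth microdilution MIC against P. aeruginosa PAO1 in LB: peptides serially diluted by ⅔, bacteria added at OD600 0.001 and incubated 18–24 h at 37 °C. MTT added; MIC is the lowest concentration preventing visible growth.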

Row | MIC B. subtilis BR151 [1] [mg/L] | MIC E. coli DH5α [2] [mg/L] | MIC P. aeruginosa PAO1 [3] [mg/L] | Structure (SMILES)
1 | 2 (≈ 0.472 µM) | 2 (≈ 0.472 µM) | 6 (≈ 1.42 µM) | CC(C)C[C@@H](NC(=O)[C@@H](CCCCN)NC(=O)[C@@H](CNC(=O)[C@@H](CC(C)C)NC(=O)[C@@H](CCCCN)NC(=O)[C@@H](CNC(=O)[C@@H](CC(C)C)NC(=O)[C@@H](CCCCN)NC(=O)[C@@H](CNC(=O)[C@@H](CC(C)C)NC(=O)[C@H](N)CCCCN)NC(=O)[C@@H](CC(C)C)NC(=O)[C@H](N)CCCCN)NC(=O)[C@@H](CC(C)C)NC(=O)[C@@H](CCCCN)NC(=O)[C@@H](CNC(=O)[C@@H](CC(C)C)NC(=O)[C@H](N)CCCCN)NC(=O)[C@@H](CC(C)C)NC(=O)[C@H](N)CCCCN)NC(=O)[C@@H](CC(C)C)NC(=O)[C@@H](CCCCN)NC(=O)[C@@H](CNC(=O)[C@@H](CC(C)C)NC(=O)[C@@H](CCCCN)NC(=O)[C@@H](CNC(=O)[C@@H](CC(C)C)NC(=O)[C@H](N)CCCCN)NC(=O)[C@@H](CC(C)C)NC(=O)[C@H](N)CCCCN)NC(=O)[C@@H](CC(C)C)NC(=O)[C@@H](CCCCN)NC(=O)[C@@H](CNC(=O)[C@@H](CC(C)C)NC(=O)[C@H](N)CCCCN)NC(=O)[C@@H](CC(C)C)NC(=O)[C@H](N)CCCCN)C(N)=O [MSt-154, (kl)8(bkl)4(bkl)2(bkl)] (I: H-[dK][dL][dDap]([dL-dK])[dK][dL][dDap][dK][dL][dDap][dK][dL]-NH2 / II: H-[dK][dL][dDap]([dL-dK])[dK][dL][dDap][dK][dL] / III: H-[dK][dL][dDap]([dL-dK])[dK][dL] / IV: H-[dK][dL][dDap]([dL-dK])[dK][dL]; amide I:6-IV:C, I:9-II:C, II:6-III:C)
2 | 6 (≈ 1.21 µM) | 4 (≈ 0.807 µM) | 11 (≈ 2.22 µM) | CC(C)C[C@@H](NC(=O)[C@@H](CCCNC(=N)N)NC(=O)[C@@H](CCCCNC(=O)[C@@H](CC(C)C)NC(=O)[C@@H](CCCNC(=N)N)NC(=O)[C@@H](CCCCNC(=O)[C@@H](CC(C)C)NC(=O)[C@@H](CCCNC(=N)N)NC(=O)[C@@H](CCCCNC(=O)[C@@H](CC(C)C)NC(=O)[C@H](N)CCCNC(=N)N)NC(=O)[C@@H](CC(C)C)NC(=O)[C@H](N)CCCNC(=N)N)NC(=O)[C@@H](CC(C)C)NC(=O)[C@@H](CCCNC(=N)N)NC(=O)[C@@H](CCCCNC(=O)[C@@H](CC(C)C)NC(=O)[C@H](N)CCCNC(=N)N)NC(=O)[C@@H](CC(C)C)NC(=O)[C@H](N)CCCNC(=N)N)NC(=O)[C@@H](CC(C)C)NC(=O)[C@@H](CCCNC(=N)N)NC(=O)[C@@H](CCCCNC(=O)[C@@H](CC(C)C)NC(=O)[C@@H](CCCNC(=N)N)NC(=O)[C@@H](CCCCNC(=O)[C@@H](CC(C)C)NC(=O)[C@H](N)CCCNC(=N)N)NC(=O)[C@@H](CC(C)C)NC(=O)[C@H](N)CCCNC(=N)N)NC(=O)[C@@H](CC(C)C)NC(=O)[C@@H](CCCNC(=N)N)NC(=O)[C@@H](CCCCNC(=O)[C@@H](CC(C)C)NC(=O)[C@H](N)CCCNC(=N)N)NC(=O)[C@@H](CC(C)C)NC(=O)[C@H](N)CCCNC(=N)N)C(N)=O [MSt-155, (rl)8(krl)4(krl)2(krl)] (I: H-[dR][dL][dK]([dL-dR])[dR][dL][dK][dR][dL][dK][dR][dL]-NH2 / II: H-[dR][dL][dK]([dL-dR])[dR][dL][dK][dR][dL] / III: H-[dR][dL][dK]([dL-dR])[dR][dL] / IV: H-[dR][dL][dK]([dL-dR])[dR][dL]; amide I:6-IV:C, I:9-II:C, II:6-III:C)
3 | 7 (≈ 1.5 µM) | 4 (≈ 0.858 µM) | 10 (≈ 2.15 µM) | CC(C)C[C@@H](NC(=O)[C@@H](CCCNC(=N)N)NC(=O)[C@@H](CNC(=O)[C@@H](CC(C)C)NC(=O)[C@@H](CCCNC(=N)N)NC(=O)[C@@H](CNC(=O)[C@@H](CC(C)C)NC(=O)[C@@H](CCCNC(=N)N)NC(=O)[C@@H](CNC(=O)[C@@H](CC(C)C)NC(=O)[C@H](N)CCCNC(=N)N)NC(=O)[C@@H](CC(C)C)NC(=O)[C@H](N)CCCNC(=N)N)NC(=O)[C@@H](CC(C)C)NC(=O)[C@@H](CCCNC(=N)N)NC(=O)[C@@H](CNC(=O)[C@@H](CC(C)C)NC(=O)[C@H](N)CCCNC(=N)N)NC(=O)[C@@H](CC(C)C)NC(=O)[C@H](N)CCCNC(=N)N)NC(=O)[C@@H](CC(C)C)NC(=O)[C@@H](CCCNC(=N)N)NC(=O)[C@@H](CNC(=O)[C@@H](CC(C)C)NC(=O)[C@@H](CCCNC(=N)N)NC(=O)[C@@H](CNC(=O)[C@@H](CC(C)C)NC(=O)[C@H](N)CCCNC(=N)N)NC(=O)[C@@H](CC(C)C)NC(=O)[C@H](N)CCCNC(=N)N)NC(=O)[C@@H](CC(C)C)NC(=O)[C@@H](CCCNC(=N)N)NC(=O)[C@@H](CNC(=O)[C@@H](CC(C)C)NC(=O)[C@H](N)CCCNC(=N)N)NC(=O)[C@@H](CC(C)C)NC(=O)[C@H](N)CCCNC(=N)N)C(N)=O [MSt-156, (rl)8(brl)4(brl)2(brl)] (I: H-[dR][dL][dDap]([dL-dR])[dR][dL][dDap][dR][dL][dDap][dR][dL]-NH2 / II: H-[dR][dL][dDap]([dL-dR])[dR][dL][dDap][dR][dL] / III: H-[dR][dL][dDap]([dL-dR])[dR][dL] / IV: H-[dR][dL][dDap]([dL-dR])[dR][dL]; amide I:6-IV:C, I:9-II:C, II:6-III:C)
4 | 6 (≈ 1.07 µM) | 7 (≈ 1.24 µM) | 12 (≈ 2.13 µM) | NCCCC[C@H](NC(=O)[C@H](CCCCNC(=O)[C@H](Cc1c[nH]c2ccccc12)NC(=O)[C@H](CCCCN)NC(=O)[C@H](CCCCNC(=O)[C@H](Cc1c[nH]c2ccccc12)NC(=O)[C@H](CCCCN)NC(=O)[C@H](CCCCNC(=O)[C@H](Cc1c[nH]c2ccccc12)NC(=O)[C@@H](N)CCCCN)NC(=O)[C@H](Cc1c[nH]c2ccccc12)NC(=O)[C@@H](N)CCCCN)NC(=O)[C@H](Cc1c[nH]c2ccccc12)NC(=O)[C@H](CCCCN)NC(=O)[C@H](CCCCNC(=O)[C@H](Cc1c[nH]c2ccccc12)NC(=O)[C@@H](N)CCCCN)NC(=O)[C@H](Cc1c[nH]c2ccccc12)NC(=O)[C@@H](N)CCCCN)NC(=O)[C@H](Cc1c[nH]c2ccccc12)NC(=O)[C@H](CCCCN)NC(=O)[C@H](CCCCNC(=O)[C@H](Cc1c[nH]c2ccccc12)NC(=O)[C@H](CCCCN)NC(=O)[C@H](CCCCNC(=O)[C@H](Cc1c[nH]c2ccccc12)NC(=O)[C@@H](N)CCCCN)NC(=O)[C@H](Cc1c[nH]c2ccccc12)NC(=O)[C@@H](N)CCCCN)NC(=O)[C@H](Cc1c[nH]c2ccccc12)NC(=O)[C@H](CCCCN)NC(=O)[C@H](CCCCNC(=O)[C@H](Cc1c[nH]c2ccccc12)NC(=O)[C@@H](N)CCCCN)NC(=O)[C@H](Cc1c[nH]c2ccccc12)NC(=O)[C@@H](N)CCCCN)C(=O)N[C@@H](Cc1c[nH]c2ccccc12)C(N)=O [MSt-172, (KW)8(KKW)4(KKW)2(KKW)] (I: H-KWK([Trp-Lys])KWKKWKKW-NH2 / II: H-KWK([Trp-Lys])KWKKW / III: H-KWK([Trp-Lys])KW / IV: H-KWK([Trp-Lys])KW; amide I:6-IV:C, I:9-II:C, II:6-III:C; N-terminus assumed)
